Publication PMC8748916, “Microbial enzymes induce colitis by reactivating triclosan in the mouse gastrointestinal tract” (Nature Communications, 2022)
Where “and” joins values, the source holds several entries; their conditions need not be identical. Identical values can stand only once.

How the values were obtained:
mammalian GUS enzyme = test system: mammalian GUS enzyme; parameters: method as in PMID 30062115; conditions: cited from earlier work
E. eligens GUS = E. eligens GUS (Lachnospira eligens, UniProt C4Z6Z2); test: In vitro IC50 assay (TCS-G to TCS conversion, HPLC); assay type: biochemical
Protocol: (§1) Reaction mixtures containing 10 µL GUS (10 nM final), 10 µL TCS-G (200 µM final), 5 µL inhibitor (various concentrations), and 25 µL buffer (50 mM HEPES, 50 mM NaCl, various pH) or (50 mM sodium acetate, 50 mM NaCl, various pH) were incubated for 10 min and quenched with 50 µL 25% trichloroacetic acid. Samples were centrifuged 10 min at 16,000 × g, and the supernatant was analyzed using the method described for the catalytic efficiency assay. Inhibition was calculated by the equation below:1 %inhibition=100×(1−(AUCinh−AUCmax)/(AUCmin−AUCmax)) where AUCmin is the signal of the uninhibited reaction, AUCmax is the signal of the 100% inhibited reaction, and AUCinh is the signal of the reaction at a given concentration of inhibitor. Percent inhibition values were plotted against the log of inhibitor concentration, and GraphPad Prism 8.0 was used to determine IC50 values.

[1] = test system: F. prausnitzii 2-L1 (Fp2-L1) GUS; test: as above; assay type: biochemical; conditions: for F. prausnitzii 2-L1 GUS %inhibition: Fig. 4b, triplicate
C. perfringens GUS = C. perfringens GUS (Clostridium perfringens, UniProt Q8XP19); test: biochemical
Caco2 cells = test: Cell proliferation assay (MTT); assay type: cell-based, human
Protocol: (§2) Mouse (MC38) or human (Caco2 and HCT-116) intestinal cells were grown in DMEM medium fortified with 10% FBS (EMD Millipore Corporation). The cells were seeded in 96-well plates, then treated with GUSi or vehicle (0.2% v/v DMSO) for 24 h. Cell viability was determined using an MTT assay.
(§3) Fig. S14. GUSi treatment has little effect on the proliferation of mouse or human intestinal cells in vitro.
(§4) Mouse (MC38) or human (Caco2 and HCT-116) intestinal cells were treated with GUSi or vehicle (0.2% v/v
(§5) DMSO) for 24 h, then cell viability was analyzed using a MTT assay. The data are mean ± SEM, n = 5-6 per

HCT-116 cells = test: Cell proliferation assay (MTT); assay type: cell-based, human
Protocol: as §2, §3, §4, §5

E. coli = test system: E. coli; parameters: method as in PMID 30062115; conditions: cited from earlier work
Loop 1 GUS enzymes = test: In vitro IC50 assay, purified Loop 1 GUS enzymes (group statement); assay type: biochemical, gut microbial; conditions: Fp2-L1 GUS and several other Loop 1 GUS enzymes; conversion of TCS-G to TCS
Protocol: as §1

[2] = GUSi 3.7037 uM, Fig. 4b, triplicate
[3] = GUSi 11.1111 uM, Fig. 4b, triplicate
[4] = GUSi 33.3333 uM, Fig. 4b, triplicate
[5] = GUSi 100 uM, Fig. 4b, triplicate
[6] = read-out: C. perfringens GUS % inhibition
[7] = 24-h treatment, concentration up to 10 µM

## C1CCc2c(c(N3CCOCC3)nc3sc4c(N5CCNCC5)nnnc4c23)C1 [GUSi, UNC10201652]
Mammalian GUS enzyme
  effect on the activity of mammalian GUS enzyme: no effect
E. eligens GUS
  IC50: 3100 ± 100 nM
E. eligens GUS; GUSi 0.0457247 uM, Fig. 4b, triplicate
  inhibition at 0.0457247 µM: 0%
E. eligens GUS; GUSi 0.137174 uM, Fig. 4b, triplicate
  inhibition at 0.137174 µM: 0%
E. eligens GUS; GUSi 0.411523 uM, Fig. 4b, triplicate
  inhibition at 0.411523 µM: 0%
E. eligens GUS; GUSi 1.23457 uM, Fig. 4b, triplicate
  E. eligens GUS % inhibition: 2.145% and 1.672%
E. eligens GUS; [2]
  E. eligens GUS % inhibition: 67.2992% and 67.384%
  inhibition at 3.7037 µM: 64.7%
E. eligens GUS; [3]
  E. eligens GUS % inhibition: 95.2204% and 97.0627%
  inhibition at 11.1111 µM: 90%
E. eligens GUS; [4]
  E. eligens GUS % inhibition: 103.909% and 106.718%
  inhibition at 33.3333 µM: 97.2%
E. eligens GUS; [5]
  E. eligens GUS % inhibition: 105.208% and 106.762%
  inhibition at 100 µM: 97.5%
[1]; GUSi 0.0457247 uM
  F. prausnitzii 2-L1 GUS %inhibition: 0% and 0.2667%
[1]; GUSi 0.137174 uM
  F. prausnitzii 2-L1 GUS %inhibition: 0% and 0.1263%
[1]; GUSi 0.411523 uM
  F. prausnitzii 2-L1 GUS %inhibition: 0%
[1]; GUSi 3.7037 uM
  F. prausnitzii 2-L1 GUS %inhibition: 74.6624% and 62.5632% and 66.5428%
[1]; GUSi 11.1111 uM
  F. prausnitzii 2-L1 GUS %inhibition: 93.6484% and 88.7563% and 88.6045%
[1]; GUSi 33.3333 uM
  F. prausnitzii 2-L1 GUS %inhibition: 99.4351% and 98.0067% and 94.7151%
[1]; GUSi 100 uM
  F. prausnitzii 2-L1 GUS %inhibition: 100.964% and 99.7754% and 96.4492%
[1]; conversion of TCS-G (200 µM) to TCS, Loop 1 GUS
  IC50: 2800 ± 100 nM
C. perfringens GUS
  IC50: 640 ± 40 nM
C. perfringens GUS; [6]
  inhibition at 1.23457 µM: 78%
  inhibition at 3.7037 µM: 93.9%
  inhibition at 11.1111 µM: 97.7%
  inhibition at 33.3333 µM: 98.6%
  inhibition at 100 µM: 99.4%
Caco2 cells; [7]
  effect on cell growth (MTT): little effect
Caco2 cells; Caco2, concentration 1, replicates
  Cell proliferation (Fig. S14): 98.3792 and 85.2575 and 104.44 and 99.0453 and 92.8508 and 100.244
Caco2 cells; Caco2, concentration 2, replicates
  Cell proliferation (Fig. S14): 86.1234 and 96.6474 and 97.7798 and 94.9156 and 100.844
Caco2 cells; Caco2, concentration 5, replicates
  Cell proliferation (Fig. S14): 95.1821 and 92.3845 and 92.5844 and 91.9849 and 82.46 and 86.0568
Caco2 cells; Caco2, concentration 10, replicates
  Cell proliferation (Fig. S14): 85.1243 and 87.6554 and 72.6021 and 79.7957 and 82.3268 and 62.0782
HCT-116 cells; [7]
  effect on cell growth (MTT): little effect
HCT-116 cells; HCT 116, concentration 1, replicates
  Cell proliferation (Fig. S14): 91.3142 and 95.487 and 92.4485 and 104.886 and 100.024
HCT-116 cells; HCT 116, concentration 2, replicates
  Cell proliferation (Fig. S14): 98.4038 and 88.5189 and 93.2993 and 86.1692 and 98.1202 and 99.3761
HCT-116 cells; HCT 116, concentration 5, replicates
  Cell proliferation (Fig. S14): 113.11 and 102.536 and 95.2844 and 92.408 and 101.807 and 114.082
HCT-116 cells; HCT 116, concentration 10, replicates
  Cell proliferation (Fig. S14): 87.263 and 108.329 and 83.941 and 79.8088 and 79.1606 and 114.487
E. coli
  effect on growth of E. coli: no effect
Loop 1 GUS enzymes
  IC50: 640 to 4900 nM
